Biological target: T1, Calpain I (Homo sapiens, UniProt P07384)
T1 construct: made in house
T1 sequence (P07384 1-714): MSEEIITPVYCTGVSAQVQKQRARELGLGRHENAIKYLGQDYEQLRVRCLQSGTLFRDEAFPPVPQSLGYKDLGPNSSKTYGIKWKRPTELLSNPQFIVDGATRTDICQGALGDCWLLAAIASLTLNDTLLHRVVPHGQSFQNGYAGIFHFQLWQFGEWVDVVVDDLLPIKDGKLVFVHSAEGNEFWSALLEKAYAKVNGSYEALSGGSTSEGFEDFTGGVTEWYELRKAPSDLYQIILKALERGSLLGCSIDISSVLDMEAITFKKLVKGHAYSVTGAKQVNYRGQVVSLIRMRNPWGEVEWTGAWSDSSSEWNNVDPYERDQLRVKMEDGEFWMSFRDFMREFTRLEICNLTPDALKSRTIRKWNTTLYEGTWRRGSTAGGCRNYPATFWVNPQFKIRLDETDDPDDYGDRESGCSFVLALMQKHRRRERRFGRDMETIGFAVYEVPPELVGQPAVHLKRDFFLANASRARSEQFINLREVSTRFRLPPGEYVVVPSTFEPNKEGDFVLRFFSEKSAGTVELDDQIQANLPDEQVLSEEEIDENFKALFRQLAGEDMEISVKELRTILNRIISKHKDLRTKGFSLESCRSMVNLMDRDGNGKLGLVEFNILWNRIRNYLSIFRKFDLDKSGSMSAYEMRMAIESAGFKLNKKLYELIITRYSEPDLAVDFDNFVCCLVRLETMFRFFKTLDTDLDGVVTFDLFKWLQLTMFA
T1 sequence (P04632 1-268 partner): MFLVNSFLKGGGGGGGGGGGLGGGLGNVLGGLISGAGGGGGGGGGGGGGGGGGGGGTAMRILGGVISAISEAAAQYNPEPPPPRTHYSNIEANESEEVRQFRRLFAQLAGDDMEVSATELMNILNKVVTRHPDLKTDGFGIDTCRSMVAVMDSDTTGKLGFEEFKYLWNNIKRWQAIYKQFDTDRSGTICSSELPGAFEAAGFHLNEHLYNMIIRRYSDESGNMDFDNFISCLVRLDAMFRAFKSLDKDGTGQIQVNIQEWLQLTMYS
Assay: Inhibition of calpain I activity (Succ-Leu-Tyr-MNA substrate hydrolysis, fluorescence)
Format: biochemical
Settings: Example 187, in text; bisulfite addition compound; read-out: IC50 (calpain)
Description: To evaluate inhibitory activity, stock solutions (40 times concentrated) of each compound to be tested were prepared in 100% anhydrous DMSO and […] of each inhibitor preparation were aliquoted into each of three wells of a 96-well plate. Calpain I, prepared by a modification of the method of W. J. Lee et al. (Biochem. […] To start the reaction, […] of 50 mM CaCl2 in assay buffer was added to each of the wells of the plate, excepting three, which were used as background signal baseline controls. Substrate hydrolysis was monitored every 5 minutes for a total of 30 minutes using a Fluoroskan II fluorescence plate reader. […] Inhibition of calpain I activity was calculated as the percent decrease in the rate of substrate hydrolysis in the presence of inhibitor relative to the rate in its absence. Comparison between the inhibited and control rates was made within the linear range for substrate hydrolysis. For screening, compounds were tested at […]. […] The results were plotted as percent inhibition versus log inhibitor concentration, and the IC50 was calculated from linear regression of the data.

- IC50: 8 nM
Structure (SMILES): CCN1C(C(=O)N[C@@H](Cc2ccccc2)C(O)S(=O)(=O)O)Cc2cc3c(cc2S1(=O)=O)OCCO3 (stereo partly drawn) [Example 187, N-(3,4-Dihydro-6,7-ethylenedioxy-2-ethyl-2H-1,2-benzothiazine-3-carbonyl)-L-phenylalaninal 1,1-dioxide, bisulfite addition compound]
